Source: ChEMBL document CHEMBL5365463, “Identification of a Self-Assembling Small-Molecule Cancer Vaccine Adjuvant with an Improved Toxicity Profile” (J Med Chem, 2023)
Calls of active or inactive are those of the source. The calls are words filed in the database; no cut-off is given here.

Legend:
B16-OVA melanoma cell [1] = assay: Antitumor activity against mouse B16-OVA melanoma cell xenografted in C57BL/6 mouse assessed as increase in CD8+T cell level in spleen at 500 ug measured after 24 hrs in presence of OVAp by flow cytometry analysis; format: functional, cell-based; conditions: dose 500.0 µg
B16-OVA melanoma cell [2] = assay: Antitumor activity against mouse B16-OVA melanoma cell xenografted in C57BL/6 mouse assessed as effect on central memory T cell in spleen at 500 ug, sc in presence of OVAp by flow cytometry analysis; format: functional, organism-based; conditions: dose 500.0 µg
[3] = Toxicity in C57BL/6 mouse assessed as effect on lung at 500 ug, sc by H and E staining based analysis; format: organism-based; conditions: in vivo, dose 500 µg
[4] = Toxicity in C57BL/6 mouse assessed as effect on AST level in serum at 500 ug measured after 1 day after immunization; conditions: 24 h, dose 500 µg
[5] = Toxicity in BALB/c mouse assessed as reduction in leukocyte count measured after 16 hrs; conditions: dose 100-1000 µg
BMDC [6] = assay: Induction of immune response in TLR7 knockout mouse BMDC cells assessed as increase in MIP-1alpha production at 10 to 100 uM incubated for 24 hrs by ELISA method; format: functional, cell-based; conditions: dose 10-100 µM
RAW264.7 [7] = assay: Induction of apoptosis in mouse RAW264.7 cells assessed as necrotic cells at 12 uM by flow cytometry analysis (reference value: 20.6 %); format: functional
[8] = Toxicity in C57BL/6 mouse assessed as effect on creatinine level in serum at 500 ug measured after 1 day after immunization; conditions: 24 h, dose 500 µg
BMDC [9] = assay: Cytotoxicity against mouse BMDC cells at 80 uM incubated for 24 hrs by Celltiter-Glo luminescence assay; format: toxicity, cell-based
[10] = Toxicity in C57BL/6 mouse assessed as effect on body weight at 500 ug measured from day 9 to 21; conditions: in vivo, 312 h, dose 500 µg, time 13 day
[11] = Toxicity in BALB/c mouse assessed as increase in Mx2 expression at 100 to 1000 ug measured after 16 hrs in presence of hemagglutinin; conditions: in vivo, dose 100-1000 µg
[12] = Toxicity in C57BL/6 mouse assessed as effect on urea level in serum at 500 ug measured after 1 day after immunization; conditions: 24 h, dose 500 µg
RAW264.7 [13] = assay: Induction of apoptosis in mouse RAW264.7 cells assessed as live cells at 16 uM by flow cytometry analysis (reference value: 75.4 %); format: functional
Mus musculus = species: Mus musculus; assay: Induction of immune response in OVAp immunized C57BL/6 mouse assessed as increase in number of antigen-specific IFN-gamma+ CD44+ CD8+ T cells in spleen at 100 ug measured after 35 days by flow cytometry analysis; format: functional, organism-based; conditions: T-cell, dose 100.0 µg, time 35.0 day
RAW264.7 [14] = assay: Induction of apoptosis in mouse RAW264.7 cells assessed as necrotic cells at 4 uM by flow cytometry analysis (reference value: 20.6 %); format: functional
[15] = Antitumor activity against mouse B16-OVA melanoma cell xenografted in C57BL/6 mouse assessed as fold increase in CD8+T cells at 500 ug, sc in presence of OVAp by flow cytometry analysis; format: functional; conditions: dose 500 µg
RAW264.7 [16] = assay: Induction of apoptosis in mouse RAW264.7 cells assessed as live cells at 12 uM by flow cytometry analysis (reference value: 75.4 %); format: functional
RAW264.7 [17] = assay: Induction of apoptosis in mouse RAW264.7 cells assessed as apoptotic cells at 10 uM by flow cytometry analysis (reference value: 3.26 %); format: functional

## C[C@H](CCC(=O)NCCCCCCCNC(=O)CC[C@@H](C)[C@H]1CC[C@H]2[C@@H]3CC[C@@H]4C[C@H](O)CC[C@]4(C)[C@H]3C[C@H](O)[C@]12C)[C@H]1CC[C@H]2[C@@H]3CC[C@@H]4C[C@H](O)CC[C@]4(C)[C@H]3C[C@H](O)[C@]12C
B16-OVA melanoma cell [1]
  Activity: Active
B16-OVA melanoma cell [2]
  Activity: Active
[3]
  Activity: Non-Toxic
[4]
  Activity: Non-Toxic
[5]
  Activity: Non-Toxic
BMDC [6]
  Activity: inactive
RAW264.7 [7]
  Activity: 30.5%
[8]
  Activity: Non-Toxic
BMDC [9]
  Activity: Non-Toxic
[10]
  Activity: Non-Toxic
[11]
  Activity: Non-Toxic
[12]
  Activity: Non-Toxic
RAW264.7 [13]
  Activity: 63.4%
Mus musculus
  Activity: Active
RAW264.7 [14]
  Activity: 19%
[15]
  fold change (FC): 6.3
RAW264.7 [16]
  Activity: 66.8%
RAW264.7 [17]
  Activity: 2.23%
